Data reported in ChEMBL document CHEMBL1126601, “Synthesis of a photoaffinity analog of taxol as an approach to identify the taxol binding site on microtubules” (J Med Chem, 1993).

Assays:
J774 = test: Drug concentration that inhibits cell division by 50% after 72 hr incubation for murine like macrophage cell line J774.2; assay type: functional; conditions: Mus musculus, J774, 72 h; read-out: ED50 (the source's name)
Mus musculus = organism: Mus musculus; test: Ability to inhibit binding of [3H]taxol was determined; assay type: functional

CC(=O)O[C@H]1C(=O)[C@@]2(C)C([C@H](CC(=O)c3ccccc3)[C@]3(O)C[C@H](OC(=O)[C@H](O)C(NC(=O)c4ccccc4)c4ccccc4)C(C)=C1C3(C)C)[C@]1(OC(C)=O)CO[C@@H]1C[C@@H]2O (some centres not stated) gave an EC50 (J774) of 50 nM and a Ki (Mus musculus) of 2000 nM.
